Laboratory results from patent publication US10227561B2, “Methods and compositions for targeting progenitor cell lines” (Mandala Biosciences, LLC, priority 2012, dated 2019).
Like-named read-outs stand apart in the source and are kept apart here.

How the values were obtained:
somatic cells = conditions: cited from earlier work
W10 progenitor cell line = assay: Immunofluorescent staining of bound phage; assay type: binding, human; conditions: peptide display phage, 2×10^10 pfu/well, live cells, 2 h at 37° C.
Method: The binding specificity of selected phages was determined by immunofluorescent staining of bound phage to the surface of W10 progenitor cell line. Cells were plated at 100,000 cells/well in 24 well plates and incubated overnight. Phages at 2×10^10 pfu/well were diluted in 0.5 ml of W10 growth media supplemented with 2% BSA and incubated with live cells for 2 h at 37° C. Cells were washed as for the selection experiments and fixed by 4% paraformaldehyde for 20 min at RT. Cells were washed twice with PBS and permeabilized by ice-cold MeOH for 15 min on ice. After another two washes, cells were blocked with 5% goat serum in 2% BSA in PBS for 1 h at RT or overnight at 4° C. Cells were incubated with 1:700 dilution of rabbit anti-Fd bacteriophage antibody (Sigma, B7786) in 2% BSA in PBS for 1 h at RT. Cells were washed with 2 ml of 1% BSA in PBS three times, and incubated with 1:1000 dilution of goat anti-rabbit AlexaFluor568 conjugated antibody (Invitrogen, A11011) in 1% BSA in PBS for 1 h at RT. Cells were counterstained with DAPI at 0.1 μg/ml after final washes and photographed by an Olympus IX71 fluorescence microscope. Images were taken and processed using MetaMorph (version 7.5.6.0, Molecular Devices), ImageJ (version 1.45b, National Institute of Health) or Photoshop (version 9.0.2, Adobe) software.

[1] = test system: 10 embryonic progenitor cell lines; assay: Selectivity of Qdot peptide complexes, panel of progenitor lines; assay type: cell-based, human; conditions: out of the 10 lines; peptide targeted Qdots, flow cytometry
Method: (§1) FIG. 6. Selectivity of Qdot peptide complexes. Embryonic progenitor cell lines were labeled with Qdot complexes in their corresponding growth media and analyzed by flow cytometry as in (FIG. 5C). Percentage of labeled cells was calculated by setting up gates (allowing up to 1%) using the progenitor cell line labeled with untargeted Qdots and unlabeled cells. 10,000 events were recorded for each sample. Values are from triplicate experiments and shown as mean+/−standard error.
(§2) For flow cytometric analysis of labeled cells, cells were removed from the plates using TrypLE for 5 min at 37° C. Cells were resuspended in PBS, passed through strain top tubes and analyzed using flow cytometer. Control samples included unlabeled cells and cells labeled with untargeted Qdots. For each sample, 10,000 events were quantified. The LSRFortessa flow cytometer (BD Biosciences) was used with a violet laser excitation at 405 nm with a 605/23 bandpass filter to detect Qdot605 and the yellow laser excitation at 561 nm with a 670/30 bandpass filter to detect Qdot655. Cell autofluorescence was detected with the blue laser excited at 488 nm and a 510/25 bandpass filter.
2 μM of Qdot Streptavidin conjugate (Qdot605 ITK SA, Invitrogen, Q10001MP) were diluted in 100 μl of binding buffer (supplied with Qdot605 ITK SA) and incubated with 100-fold excess of biotinylated peptide on ice for 1 h. […]

W10 cells [2] = assay: Cell labeling with peptide targeted Qdot complexes (microscopy, flow cytometry); assay type: cell-based, human
Method: as §2
2 μM of Qdot Streptavidin conjugate (Qdot605 ITK SA, Invitrogen, Q10001MP) were diluted in 100 μl of binding buffer (supplied with Qdot605 ITK SA) and incubated with 100-fold excess of biotinylated peptide on ice for 1 h. Uncoupled biotinylated peptide was removed from the mixture by incubating it with streptavidin magnetic beads equilibrated in PBS on ice for 30 min; placing the mixture on a magnetic stand to separate the beads and removed the complexes in solution. SA-beads were washed with PBS and combined with the recovered complexes. For control reactions, Qdots were incubated with binding buffer and treated in similar way as the peptide complexes. […]

W10 cells [3] = assay: Peptide competition for phage binding; set-up: species or system human; conditions: for specificity of binding (lack of competition with scrambled peptides): free peptide against scrambled peptide; for competition of the 2 peptides with each other for W10 cell binding: data not shown
Method: Cells were plated at 100,000 cells/well in 24 well plates and incubated overnight. The corresponding synthetic peptide for each peptide phage or control peptides (unrelated or scrambled sequence peptide) were pre-incubated with cells at 5 nM or 5 μM in W10 growth media supplemented with 2% BSA for 30 min at 4° C. Peptide phages at 2×10^10 pfu/well were added to the peptide dilution and incubated with live cells for 1 h at 4° C. Peptide phage bound to cells was detected by immunostaining and fluorescence microscopy using anti-phage antibody on fixed and permeabilized cells or quantified by titration of phages recovered from cell lysates. The percentage of recovered phage for the competition assay was normalized by the recovered phage in the no-peptide control. Duplicate independent experiments were performed for competition experiments.

[4] = test system: hPS cells grown under mesoderm differentiation conditions; assay: Peptide targeted Qdot labeling of differentiating hPS cells; assay type: cell-based, human; conditions: 5 nM, 16 h at 37° C.
Method: (§3) FIG. 7A and FIG. 7B. Labeling of a differentiating pluripotent stem cells using peptide targeted Qdots. FIG. 7A: Selective peptide targeting of human embryonic stem cells (H9) that were differentiated into the three germ layers (see methods for protocols) for 6-8 days compared to undifferentiated control. Differentiated cells were incubated for 16 h at 37° C. with 5 nM of Qdot complexes, washed and imaged using a fluorescence microscope. Representative bright-field and fluorescent signal of W10 peptide Qdot complexes (red) are shown. FIG. 7B: Cells were stained with the following differentiation markers to verify the germ layer commitment: nestin for ectoderm, α-actinin for mesoderm, SOX17 for endoderm conditions and OCT3/4 for undifferentiated cells.
(§4) 2 μM of Qdot Streptavidin conjugate (Qdot605 ITK SA, Invitrogen, Q10001MP) were diluted in 100 μl of binding buffer (supplied with Qdot605 ITK SA) and incubated with 100-fold excess of biotinylated peptide on ice for 1 h. Uncoupled biotinylated peptide was removed from the mixture by incubating it with streptavidin magnetic beads equilibrated in PBS on ice for 30 min; placing the mixture on a magnetic stand to separate the beads and removed the complexes in solution. SA-beads were washed with PBS and combined with the recovered complexes. For control reactions, Qdots were incubated with binding buffer and treated in similar way as the peptide complexes. The concentration of Qdot-peptide complexes was estimated based on the final volume recovered. To label cells with the Qdot-complexes, 100,000 cells were plated on gelatin-coated wells of 24 well plates were incubated for 6 hours; 5 nM of Qdot-peptides in growth media was added to the cells and incubated for 16 h at 37° C. Cells were imaged after washes with PBS to remove the unbound Qdot-complexes.
(§5) For ectoderm differentiation conditions, embryoid bodies (EBs) were formed from colonies by manual techniques and grown in complete NPC media (DMEM-F12:Neurobasal media 1:1+50 μl/ml BIT9500 Serum substitute (Stemgent)+1% GlutaMax+1% penicillin-streptomycin+1 μl/ml B27 supplement (Invitrogen)+5 mM nicotinamide+5 μg/ml insulin+20 ng/ml EGF+20 ng/ml bFGF) in low attachment plates for 6 days; EBs were then plated on fibronectin-coated wells and grown for another 3 days. For mesoderm differentiation conditions, EBs were cultured as above except that media was DMEM-F12 with GlutaMax+20% FBS+1% NEAA+1% penicillin-streptomycin, and plated on 0.1% gelatin-coated wells. For endodermal differentiation conditions, undifferentiated H9 cells were transferred from colonies growing with MEFs to Geltrex™ (Life Technologies, Grand Island, N.Y.)-coated wells and grown for 2 days with MEF-conditioned media+4 ng/ml bFGF. From day 2, cells were grown for another 5 days in RPMI+0.5% FBS+100 ng/ml Activin A.

[5] = test system: hPS cells differentiated using culture conditions for definitive endoderm; assay: as above; assay type: cell-based, human; conditions: definitive endoderm conditions (high activin A, low serum); 5 nM, 16 h at 37° C.
Method: as §3, §4, §5

7PEND24 cell line = assay: Qdot peptide complex labeling, flow cytometry; assay type: cell-based, human; conditions: for cell labeling by peptide Qdot complexes: 7PEND24, in words
Method: as §1, §2, §4

4D20.8 cells = assay: Qdot peptide complex labeling, flow cytometry; assay type: cell-based, human
Method: as §1, §2, §4

E15 cells = assay: Qdot peptide complex labeling, flow cytometry; assay type: cell-based, human
Method: as §1, §2, §4

MW1 cell line = assay: Qdot peptide complex labeling, flow cytometry; assay type: cell-based, human
Method: as §1, §2, §4

SM30 cell line = assay: Qdot peptide complex labeling, flow cytometry; assay type: cell-based, human
Method: as §1, §2, §4

O=C(NCc1ccccc1)c1csc(Nc2ccncn2)n1 [Thiazovivin]
increase of reprogramming efficiency (somatic cells; Thiazovivin with the two previous chemicals (SB431412, PD0325901)): 200 fold

CCCC(CCC)C(=O)O [valproic acid]
increase of reprogramming efficiency (somatic cells; compared to Yamanaka's traditional transcription factor method): 100 fold

DWLWSFAPNVDT (FROM PHAGE DISPLAY LIBRARY) [W10 R3 18, W10 selected 12-mer; tested as M13 display phage, C-terminal biotinylated free peptide and streptavidin Qdot complex]
binding of peptide phage detected by immunocytochemical staining (W10 progenitor cell line): strongest binding
number of embryonic progenitor cell lines with a high percentage of cells bound [1]: 7
percentage of cells labeled with peptide-Qdot complexes (W10 cells [2]; 5 nM Qdot complexes, 16 h at 37° C., gated on untargeted Qdots): 90%
fluorescent shift of labeled cells (W10 cells [2]; compared to untargeted Qdots): strong fluorescent shift
specificity of binding (lack of competition with scrambled peptides) (W10 cells [3]): sequence specific
cell labeling by Qdot complexes [4]: a few small patches of labeled cells
cell labeling by Qdot complexes [5]: a high percentage of cells were labeled

GWVIDYDYYPMR (FROM PHAGE DISPLAY LIBRARY) [W10 R2 11, W10 selected 12-mer; tested as M13 display phage, C-terminal biotinylated free peptide and streptavidin Qdot complex]
binding of peptide phage detected by immunocytochemical staining (W10 progenitor cell line): strongest binding
cell labeling by peptide Qdot complexes (7PEND24 cell line): high percentage binding
cell labeling by peptide Qdot complexes (4D20.8 cells): very little labeling
cell labeling by peptide Qdot complexes (E15 cells): very little labeling
competition of the 2 peptides with each other for W10 cell binding (W10 cells [3]): can compete with each other
specificity of binding (lack of competition with scrambled peptides) (W10 cells [3]): sequence specific
cell labeling by Qdot complexes [4]: a few small patches of labeled cells
cell labeling by Qdot complexes [5]: a high percentage of cells were labeled

GWYWETPLDMFN (FROM PHAGE DISPLAY LIBRARY) [W10 R2 21, W10 selected 12-mer; tested as M13 display phage, C-terminal biotinylated free peptide and streptavidin Qdot complex]
binding of peptide phage detected by immunocytochemical staining (W10 progenitor cell line): strongest binding
cell labeling by peptide Qdot complexes (7PEND24 cell line): high percentage binding
cell labeling by peptide Qdot complexes (4D20.8 cells): very little labeling
cell labeling by peptide Qdot complexes (E15 cells): very little labeling
competition for peptide phage binding (recovered phage, percentage of no-peptide control) (W10 cells [3]; C-terminal biotinylated free peptide at 5 nM or 5 μM, 4° C.): only significant at 5 μM
competition of the 2 peptides with each other for W10 cell binding (W10 cells [3]): can compete with each other
specificity of binding (lack of competition with scrambled peptides) (W10 cells [3]): sequence specific
cell labeling by Qdot complexes [4]: a few small patches of labeled cells
cell labeling by Qdot complexes [5]: a high percentage of cells were labeled

YEFDNLLNRTLW (FROM PHAGE DISPLAY LIBRARY) [W10 R2 1, W10 selected 12-mer; tested as M13 display phage, C-terminal biotinylated free peptide and streptavidin Qdot complex]
binding of peptide phage detected by immunocytochemical staining (W10 progenitor cell line): strongest binding
cell labeling (7PEND24 cell line; 7PEND24): more than 15%
cell labeling (MW1 cell line): more than 15%
cell labeling (SM30 cell line): more than 15%
cell labeling by peptide Qdot complexes (4D20.8 cells): no complex uptake
cell labeling by peptide Qdot complexes (E15 cells): no complex uptake
cell labeling by Qdot complexes [4]: no labeling
cell labeling by Qdot complexes [5]: highly restricted to a small percentage of cells
